Among the test systems are SR leukemia; COLO 205 colon; LOX IMVI melanoma; HOP-62 NSCLC; NCI-H23 lung; CAKI-1 renal; T-47D breast; PC-3 prostate; NCI-H460 lung; KM12 colon.
Assay in all cases: NCI anticancer screen, dose series, 48 h

Several values for one entry are separate records, joined by “and”; a condition that tells them apart may be missing. Equal entries are not always repeated.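 Step 1: Grow cells in 96-well plates. Step 2: Expose to compound for 48 hours at 5 concentrations. Step 3: Interpolate endpoints linearly; if unreached, use highest concentration. GI50 marks 50% less growth. Definition used: TGI = concentration required for complete inhibition of growth.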 Where only a bound is given, the exact number is not on record here.

`Cc1cc(S(=O)(=O)NC(=NCC(=O)NN)NN)c(S)cc1Cl`: the TGI in the assay on SR leukemia, with COLO 205 colon, in the assay with LOX IMVI melanoma, in the assay with HOP-62 NSCLC, with NCI-H23 lung and with CAKI-1 renal was greater than 10 µM throughout. Moreover, the TGI in the assay with T-47D breast, in the assay with PC-3 prostate, in the assay on NCI-H460 lung and in the assay on KM12 colon was greater than 10 µM each time.

With `c1ccc(C/C(=N\Nc2nc3ccccc3o2)c2ccccn2)cc1`, the TGI was 2.05 µM in the assay with SR leukemia; 0.0114 µM in the assay on COLO 205 colon; 2.27 µM in the assay on LOX IMVI melanoma; 1.55 µM with HOP-62 NSCLC; greater than 36.4 µM in the assay with NCI-H23 lung; 0.654 µM in the assay with CAKI-1 renal. For the same compound, the TGI was greater than 33.5 µM with T-47D breast, 5.68 µM in the assay with PC-3 prostate, 2.27 µM in the assay with NCI-H460 lung and 6.67 µM in the assay with KM12 colon.

Turning to `COc1cccc(N2N=C3c4ccccc4-n4c(nc5ccccc54)C3C2N)c1` (configuration not stated), the TGI in the assay with SR leukemia, in the assay on COLO 205 colon, in the assay on LOX IMVI melanoma, in the assay with HOP-62 NSCLC, in the assay on NCI-H23 lung and in the assay on CAKI-1 renal was greater than 100 µM throughout. In addition, the TGI in the assay with T-47D breast, in the assay on PC-3 prostate, in the assay with NCI-H460 lung and in the assay on KM12 colon was greater than 100 µM in each case.

For the compound `CN1C(=O)[C@@]2(C=CC3(CC2)OCCO3)c2ccccc21`, the TGI with SR leukemia, in the assay on COLO 205 colon, in the assay with LOX IMVI melanoma, in the assay on HOP-62 NSCLC, in the assay with NCI-H23 lung and in the assay with CAKI-1 renal was greater than 50 µM each time. The TGI with T-47D breast, with PC-3 prostate, in the assay with NCI-H460 lung and in the assay with KM12 colon was greater than 50 µM in each case.

As to `COc1cc2c(cc1OC)C1Cc3ccccc3CN1CCC2` (configuration not stated), the TGI in the assay on SR leukemia, with COLO 205 colon, with LOX IMVI melanoma, with HOP-62 NSCLC, in the assay with NCI-H23 lung and with CAKI-1 renal was greater than 100 µM throughout. For the same compound, the TGI with T-47D breast, with PC-3 prostate, with NCI-H460 lung and in the assay on KM12 colon was greater than 100 µM in each case.

Regarding `Cc1nn(C(=O)c2ccccc2O)c2c1C(c1ccc(O)cc1)SC(N)=N2` (configuration not stated), the TGI in the assay on SR leukemia was greater than 3.92 µM; in the assay with COLO 205 colon, greater than 10 µM; with LOX IMVI melanoma it was greater than 10 µM; with HOP-62 NSCLC, greater than 10 µM; in the assay with NCI-H23 lung, greater than 10 µM; with CAKI-1 renal it was greater than 10 µM. The TGI was 9.72 µM in the assay on T-47D breast, greater than 10 µM in the assay with PC-3 prostate, greater than 10 µM with NCI-H460 lung and greater than 10 µM in the assay with KM12 colon.

Take `CNC(=O)OCC1=C(COC(=O)NC)CN(c2ccccc2)C1`: the TGI in the assay on SR leukemia, in the assay on COLO 205 colon, in the assay with LOX IMVI melanoma, with HOP-62 NSCLC, with NCI-H23 lung and with T-47D breast was greater than 100 µM each time. Besides, the TGI with PC-3 prostate, in the assay on NCI-H460 lung and in the assay on KM12 colon was greater than 100 µM throughout.

For `O=C(O)c1ccccc1-c1ccccc1C(=O)c1ccccc1`, the TGI in the assay on SR leukemia, in the assay on COLO 205 colon, in the assay on LOX IMVI melanoma, with HOP-62 NSCLC, in the assay with NCI-H23 lung and in the assay on CAKI-1 renal was greater than 100 µM in each case. Moreover, the TGI with T-47D breast, in the assay on PC-3 prostate, with NCI-H460 lung and in the assay on KM12 colon was greater than 100 µM throughout.

As for `CN1C/C(=C\c2ccccc2[N+](=O)[O-])C(=O)/C(=C/c2ccccc2[N+](=O)[O-])C1`, the TGI in the assay on SR leukemia is 13.2 µM and 7.93 µM; with COLO 205 colon it was 0.865 µM and 0.387 µM; in the assay with HOP-62 NSCLC, 7.8 µM and 8.77 µM; with NCI-H23 lung it was 3.26 µM and > 20.7 µM; with CAKI-1 renal, 1.41 µM and 0.545 µM; in the assay on T-47D breast, 4.47 µM and 2.08 µM. The TGI is 6.45 µM and 3.29 µM in the assay with PC-3 prostate; 4.56 µM and 8.89 µM in the assay with NCI-H460 lung; 4.65 µM and 2.63 µM with KM12 colon. Moreover, the GI50 in the assay with NCI-H23 lung was 0.868 µM; with CAKI-1 renal, 0.475 µM and 0.234 µM; in the assay with T-47D breast, 1.01 µM and 0.354 µM.

In the case of `COc1cc(C2S/C(=C/c3ccccc3)C(=O)N2c2ccc(Cl)cc2)cc(OC)c1OC` (configuration not stated), the TGI is greater than 100 µM in the assay on SR leukemia; 5.68 µM in the assay with COLO 205 colon; 52.4 µM in the assay with LOX IMVI melanoma; greater than 100 µM in the assay on HOP-62 NSCLC; greater than 100 µM with NCI-H23 lung; greater than 100 µM with CAKI-1 renal. Also, the TGI is greater than 25.6 µM in the assay with T-47D breast, greater than 84.4 µM in the assay on PC-3 prostate and greater than 100 µM in the assay on KM12 colon.

`Cc1ccc(Nc2nnc3n2S(=O)(=O)c2cc(C)c(Cl)cc2S3)cc1`: the TGI is 7.85 µM in the assay on SR leukemia; 65.2 µM with LOX IMVI melanoma; 51.8 µM with HOP-62 NSCLC; 48.3 µM in the assay with NCI-H23 lung; 66.1 µM with CAKI-1 renal; greater than 100 µM in the assay on T-47D breast. In addition, the TGI is 27.3 µM in the assay on PC-3 prostate, greater than 100 µM with NCI-H460 lung and greater than 100 µM with KM12 colon.

In the case of `CC1=CC(c2ccccc2)n2c(nc3cc4ccccc4cc32)N1` (configuration not stated), the TGI in the assay on SR leukemia, in the assay on COLO 205 colon, in the assay with LOX IMVI melanoma, with NCI-H23 lung, in the assay on CAKI-1 renal and in the assay with T-47D breast was greater than 100 µM each time. Moreover, the TGI with PC-3 prostate, in the assay on NCI-H460 lung and in the assay with KM12 colon was greater than 100 µM throughout.

On to `BrCC[P+](c1ccccc1)(c1ccccc1)c1ccccc1`, for which the TGI with SR leukemia stood at 27.5 µM; in the assay with COLO 205 colon it was 17.6 µM; in the assay with LOX IMVI melanoma, 17.6 µM; with HOP-62 NSCLC it was 20.2 µM; in the assay with CAKI-1 renal, 25.2 µM; in the assay with T-47D breast, 5.17 µM. Moreover, the TGI with PC-3 prostate came to 17.3 µM; in the assay with NCI-H460 lung, 73.3 µM; in the assay with KM12 colon, 17.1 µM.

The record behind these values is PubChem BioAssay (NCI).
